Measurements taken from patent US20260028365A1 (BIOGEN MA INC., priority 2022, published 2026).
Where two headings read alike, the source gives them in different places.

Assays:
JH2 domain of human Tyk2 = JH2 domain of human Tyk2 (Homo sapiens (Human), UniProt P29597); test: JH2 Biochemical Assay (TR-FRET probe displacement); type: binding
Tyk2 = Tyk2 (Homo sapiens (Human), UniProt P29597); test: pSTAT4 Cell Assay (MSD, NK92 cells); type: cell-based
JAK2 = JAK2 (Homo sapiens (Human), UniProt O60674); test: pSTAT5 Cell Assay (MSD, TF1 cells); type: cell-based
Sequence of JAK2 (O60674 whole entry): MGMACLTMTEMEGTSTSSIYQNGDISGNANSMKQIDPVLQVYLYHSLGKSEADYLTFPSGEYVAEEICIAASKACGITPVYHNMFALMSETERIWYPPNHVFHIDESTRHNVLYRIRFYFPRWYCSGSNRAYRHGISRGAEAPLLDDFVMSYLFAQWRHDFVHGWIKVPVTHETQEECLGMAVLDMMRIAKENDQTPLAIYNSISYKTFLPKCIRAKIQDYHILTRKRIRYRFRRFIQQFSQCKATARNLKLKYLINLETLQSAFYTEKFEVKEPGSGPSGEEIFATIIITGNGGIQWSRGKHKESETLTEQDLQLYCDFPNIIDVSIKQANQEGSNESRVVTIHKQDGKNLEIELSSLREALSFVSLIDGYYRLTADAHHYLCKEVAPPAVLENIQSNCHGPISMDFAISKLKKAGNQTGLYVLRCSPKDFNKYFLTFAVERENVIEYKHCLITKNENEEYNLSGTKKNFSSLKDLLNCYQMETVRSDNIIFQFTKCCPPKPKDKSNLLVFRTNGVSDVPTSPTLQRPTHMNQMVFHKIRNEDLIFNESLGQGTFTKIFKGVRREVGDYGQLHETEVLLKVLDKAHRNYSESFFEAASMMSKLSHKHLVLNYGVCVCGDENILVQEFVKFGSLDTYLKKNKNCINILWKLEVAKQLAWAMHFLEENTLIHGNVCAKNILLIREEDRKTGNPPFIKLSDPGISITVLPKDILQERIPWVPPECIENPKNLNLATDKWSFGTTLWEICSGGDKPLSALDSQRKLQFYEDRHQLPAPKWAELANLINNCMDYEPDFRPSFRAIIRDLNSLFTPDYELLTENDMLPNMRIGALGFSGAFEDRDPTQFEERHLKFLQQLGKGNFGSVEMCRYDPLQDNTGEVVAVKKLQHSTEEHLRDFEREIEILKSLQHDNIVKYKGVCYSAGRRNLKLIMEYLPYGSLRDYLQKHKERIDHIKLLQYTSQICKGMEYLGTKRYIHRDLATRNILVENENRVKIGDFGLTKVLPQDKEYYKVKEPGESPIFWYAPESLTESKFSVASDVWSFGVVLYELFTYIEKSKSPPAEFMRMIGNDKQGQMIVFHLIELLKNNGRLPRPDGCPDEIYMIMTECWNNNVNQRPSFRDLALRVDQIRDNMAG
Protocol: Compounds of the disclosure were assessed for their ability to inhibit the JAK2 kinase activity on STAT5 utilizing an MSD-platform plate-based assay format. TF1 cells natively expressing STAT5 and JAK2 were serum-starved to reduce background phosphorylation levels, then cells were treated with compounds of disclosure for 1 hour with a 10-point four-fold dilution series starting at 10 μM. Cells were then stimulated with 30 ng/mL IL-3 for 15 minutes. Cells were then lysed and pSTAT5 levels were quantitated using an MSD plate-based assay with anti-STAT5 antibodies. The data were normalized and the percent activity versus log concentration of compound was fitted with a 4-parameter logistic model to generate a curve and an IC50 value.

JAK1 = JAK1 (Homo sapiens (Human), UniProt P23458); test: pSTAT3 Cell Assay (MSD, TF1 cells); type: cell-based
Sequence of JAK1 (P23458 whole entry): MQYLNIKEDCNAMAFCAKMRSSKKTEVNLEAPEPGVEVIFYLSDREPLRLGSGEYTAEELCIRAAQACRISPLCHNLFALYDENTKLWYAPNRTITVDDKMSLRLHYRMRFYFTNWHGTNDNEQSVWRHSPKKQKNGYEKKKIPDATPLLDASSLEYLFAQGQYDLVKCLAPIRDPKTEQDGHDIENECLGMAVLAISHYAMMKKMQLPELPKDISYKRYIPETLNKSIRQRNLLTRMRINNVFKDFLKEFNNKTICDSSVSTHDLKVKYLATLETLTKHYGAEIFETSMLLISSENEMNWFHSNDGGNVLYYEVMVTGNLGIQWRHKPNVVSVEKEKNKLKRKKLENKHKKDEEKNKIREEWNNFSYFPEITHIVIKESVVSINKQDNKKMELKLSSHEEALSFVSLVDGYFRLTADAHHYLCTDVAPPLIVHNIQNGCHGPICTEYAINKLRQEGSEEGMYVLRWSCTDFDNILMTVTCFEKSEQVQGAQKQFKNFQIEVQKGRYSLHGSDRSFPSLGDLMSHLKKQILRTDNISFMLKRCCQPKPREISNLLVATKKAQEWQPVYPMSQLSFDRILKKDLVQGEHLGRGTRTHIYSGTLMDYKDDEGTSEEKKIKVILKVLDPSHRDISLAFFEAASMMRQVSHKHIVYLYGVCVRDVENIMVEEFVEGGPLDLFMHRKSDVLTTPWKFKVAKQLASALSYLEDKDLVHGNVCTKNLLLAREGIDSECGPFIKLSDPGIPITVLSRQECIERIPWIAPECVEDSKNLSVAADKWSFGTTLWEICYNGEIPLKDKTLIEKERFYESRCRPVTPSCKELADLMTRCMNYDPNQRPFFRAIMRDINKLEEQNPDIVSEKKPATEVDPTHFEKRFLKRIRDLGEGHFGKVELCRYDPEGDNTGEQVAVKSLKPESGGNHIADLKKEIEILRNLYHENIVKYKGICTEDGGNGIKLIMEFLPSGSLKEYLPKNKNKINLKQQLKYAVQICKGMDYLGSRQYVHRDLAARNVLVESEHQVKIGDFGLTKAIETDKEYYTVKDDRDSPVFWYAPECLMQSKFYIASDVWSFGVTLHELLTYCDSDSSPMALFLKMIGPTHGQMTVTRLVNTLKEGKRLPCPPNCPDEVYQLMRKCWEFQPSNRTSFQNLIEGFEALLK
Summary of the method: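 IC50 values reflect 4-parameter logistic fits of normalized pSTAT3 signal, measured by MSD in lysed TF1 cells. Cells were serum-starved and treated with compound for 1 h (top concentration 10 μM) before a 15 min IL-6 challenge.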

[1] = TR-FRET probe displacement, JH2 domain of human Tyk2
[2] = JH2 domain of human Tyk2, TR-FRET probe displacement

Sequence of Tyk2 (P29597 whole entry): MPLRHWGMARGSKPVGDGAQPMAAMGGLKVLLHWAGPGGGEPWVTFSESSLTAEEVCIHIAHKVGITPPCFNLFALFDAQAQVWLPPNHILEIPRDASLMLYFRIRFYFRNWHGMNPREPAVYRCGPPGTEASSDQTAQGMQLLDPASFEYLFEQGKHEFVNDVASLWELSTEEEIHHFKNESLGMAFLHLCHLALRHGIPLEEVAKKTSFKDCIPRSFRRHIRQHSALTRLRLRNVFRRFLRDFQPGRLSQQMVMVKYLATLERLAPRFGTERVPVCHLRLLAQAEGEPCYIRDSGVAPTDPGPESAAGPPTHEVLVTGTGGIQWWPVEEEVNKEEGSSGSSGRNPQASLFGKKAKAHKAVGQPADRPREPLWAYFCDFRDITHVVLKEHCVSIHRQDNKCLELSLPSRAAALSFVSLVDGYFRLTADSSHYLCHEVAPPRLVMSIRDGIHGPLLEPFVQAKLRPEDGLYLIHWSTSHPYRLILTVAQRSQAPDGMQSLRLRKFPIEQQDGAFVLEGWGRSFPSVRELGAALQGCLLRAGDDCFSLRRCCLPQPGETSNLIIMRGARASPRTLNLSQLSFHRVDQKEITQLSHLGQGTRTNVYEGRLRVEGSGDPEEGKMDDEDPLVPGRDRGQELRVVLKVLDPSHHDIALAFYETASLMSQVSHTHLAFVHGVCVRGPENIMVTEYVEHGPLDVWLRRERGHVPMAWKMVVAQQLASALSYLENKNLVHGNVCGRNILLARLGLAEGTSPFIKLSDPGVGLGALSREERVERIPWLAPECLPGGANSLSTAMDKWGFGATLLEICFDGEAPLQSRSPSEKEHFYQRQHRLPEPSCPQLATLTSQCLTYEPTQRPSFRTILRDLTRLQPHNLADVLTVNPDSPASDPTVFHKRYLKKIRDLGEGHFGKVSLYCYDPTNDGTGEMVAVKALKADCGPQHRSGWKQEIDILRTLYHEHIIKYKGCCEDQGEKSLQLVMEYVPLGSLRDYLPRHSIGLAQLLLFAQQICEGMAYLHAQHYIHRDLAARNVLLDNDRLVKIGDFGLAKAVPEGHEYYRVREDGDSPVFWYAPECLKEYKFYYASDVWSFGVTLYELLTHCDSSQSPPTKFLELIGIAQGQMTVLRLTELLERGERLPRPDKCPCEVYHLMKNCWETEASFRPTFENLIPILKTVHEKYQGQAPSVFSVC
Sequence of JH2 domain of human Tyk2 (P29597 575-876): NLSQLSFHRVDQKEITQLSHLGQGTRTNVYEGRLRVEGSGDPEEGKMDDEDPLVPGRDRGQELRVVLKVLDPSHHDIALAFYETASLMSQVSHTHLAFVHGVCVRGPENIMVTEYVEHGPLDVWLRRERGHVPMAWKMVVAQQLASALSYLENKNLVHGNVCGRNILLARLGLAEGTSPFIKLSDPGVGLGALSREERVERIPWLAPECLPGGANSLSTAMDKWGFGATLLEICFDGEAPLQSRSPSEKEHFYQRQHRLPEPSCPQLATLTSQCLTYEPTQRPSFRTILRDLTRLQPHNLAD

| SMILES | IC50 (JH2 domain of human Tyk2; [1]) [nM] | IC50 (Tyk2; MSD) [nM] | IC50 (JAK2; IL-3 stimulation, MSD) [nM] | IC50 (JAK1; IL-6 stimulation, MSD) [nM] | IC50 (JH2 domain of human Tyk2; [2]) [nM] | IC50 (JAK2; IL-3 stimulated, MSD) [nM] | IC50 (JAK1; IL-6 stimulated, MSD) [nM] | IC50 (JH2 domain of human Tyk2; TR-FRET probe displacement, JH2 domain) [nM] | IC50 (Tyk2) [nM] | IC50 (JAK2; IL-3 stimulated) [nM] | IC50 (JAK1; IL-6 stimulated) [nM] |
| --- | --- | --- | --- | --- | --- | --- | --- | --- | --- | --- | --- |
| CCc1cc(Nc2cc(NC(C)=O)ncc2OC)nc(C(C)(F)F)n1 [Example 36, N-(4-((2-(1,1-difluoroethyl)-6-ethylpyrimidin-4-yl)amino)-5-methoxypyridin-2-yl)acetamide] | ≤ 10 | 10 to 100 | ≥ 1000 | ≥ 1000 |  |  |  |  |  |  |  |
| CCOc1cnc(NC(C)=O)cc1Nc1cc(OCCOC)nc(C(C)(F)F)n1 [Example 32, N-(4-((2-(1,1-difluoroethyl)-6-(2-methoxyethoxy)pyrimidin-4-yl)amino)-5-ethoxypyridin-2-yl)acetamide] | ≤ 10 | 10 to 100 | ≥ 1000 | ≥ 1000 |  |  |  |  |  |  |  |
| CC(=O)Nc1cc(Nc2cc(C)nc(C(C)(F)F)n2)c(-c2ncc(C#N)cn2)cn1 [Example 655, N-(5-(5-cyanopyrimidin-2-yl)-4-((2-(1,1-difluoroethyl)-6-methylpyrimidin-4-yl)amino)pyridin-2-yl)acetamide] |  | 10 to 100 |  |  | ≤ 10 | ≥ 1000 | ≥ 1000 |  |  |  |  |
| CCc1cc(Nc2cc(NC(N)=O)ncc2-c2cnccn2)nc(C(C)(F)F)n1 [Example 920] |  |  |  |  |  |  |  | ≤ 10 | ≤ 10 | ≥ 1000 | ≥ 1000 |
| CC(=O)Nc1cc(Nc2cc(C)nc(C(C)(F)F)n2)c(OC(C)C)cn1 [Example 39, N-(4-((2-(1,1-difluoroethyl)-6-methylpyrimidin-4-yl)amino)-5-isopropoxypyridin-2-yl)acetamide] | ≤ 10 | 10 to 100 | ≥ 1000 | ≥ 1000 |  |  |  |  |  |  |  |
| CC(=O)Nc1cc(Nc2cc(C)nc(C(C)(F)F)n2)c(-c2ncc(F)cn2)cn1 [Example 182, N-(4-((2-(1,1-difluoroethyl)-6-methylpyrimidin-4-yl)amino)-5-(5-fluoropyrimidin-2-yl)pyridin-2-yl)acetamide] | ≤ 10 | 10 to 100 | ≥ 1000 | ≥ 1000 |  |  |  |  |  |  |  |
| [2H]C([2H])([2H])n1cc(-c2cc(Nc3cc(NC(C)=O)ncc3OCC)nc(C(C)(F)F)n2)cn1 [Example 314, N-(4-((2-(1,1-difluoroethyl)-6-(1-(methyl-d3)-1H-pyrazol-4-yl)pyrimidin-4-yl)amino)-5-ethoxypyridin-2-yl)acetamide] | ≤ 10 | ≤ 10 | ≥ 1000 | ≥ 1000 |  |  |  |  |  |  |  |
| [2H]C([2H])([2H])C([2H])([2H])Oc1cnc(NC(C)=O)cc1Nc1cc(C)nc(C(C)(F)F)n1 [Example 49, N-(4-((2-(1,1-difluoroethyl)-6-methylpyrimidin-4-yl)amino)-5-(ethoxy-d5)pyridin-2-yl)acetamide] | ≤ 10 | 10 to 100 | ≥ 1000 | ≥ 1000 |  |  |  |  |  |  |  |
| CCOc1cnc(NC(C)=O)cc1Nc1cc(-c2cnn(C3CC3)c2)nc(C(C)(F)F)n1 [Example 304, N-(4-((6-(1-cyclopropyl-1H-pyrazol-4-yl)-2-(1,1-difluoroethyl)pyrimidin-4-yl)amino)-5-ethoxypyridin-2-yl)acetamide] | ≤ 10 | ≤ 10 | ≥ 1000 | ≥ 1000 |  |  |  |  |  |  |  |
| CCOc1cc(Nc2cc(NC(C)=O)ncc2OCCOC)nc(C(C)(F)F)n1 [Example 77, N-(4-((2-(1,1-difluoroethyl)-6-ethoxypyrimidin-4-yl)amino)-5-(2-methoxyethoxy)pyridin-2-yl)acetamide] | ≤ 10 | ≤ 10 | ≥ 1000 | ≥ 1000 |  |  |  |  |  |  |  |
| CC(=O)Nc1cc(Nc2cc(C)nc(C(C)(F)F)n2)c(-c2ccn(C3CC3)n2)cn1 [Example 602, N-(5-(1-cyclopropyl-1H-pyrazol-3-yl)-4-((2-(1,1-difluoroethyl)-6-methylpyrimidin-4-yl)amino)pyridin-2-yl)acetamide] |  | ≤ 10 |  |  | ≤ 10 | ≥ 1000 | ≥ 1000 |  |  |  |  |
| COCc1ccc(-c2cnc(NC(C)=O)cc2Nc2cc(C)nc(C(C)(F)F)n2)nc1 [Example 634, N-(4′-((2-(1,1-difluoroethyl)-6-methylpyrimidin-4-yl)amino)-5-(methoxymethyl)-[2,3′-bipyridin]-6′-yl)acetamide] |  | ≤ 10 |  |  | ≤ 10 | ≥ 1000 | ≥ 1000 |  |  |  |  |
